System: MV-4-11 cells
Experiment: Gene expression microarray analysis (Affymetrix PrimeView) and GSEA
Format: cell-based, human
Set-up: RFU PODN (11730768_x_at) / Fold change /veh PODN (11730768_x_at) / RFU LINC00158 (11744669_a_at) / Fold change /veh LINC00158 (11744669_a_at) / RFU DUSP10 (11751237_a_at) / Fold change /veh DUSP10 (11751237_a_at) / RFU ID3 (11757404_x_at) / Fold change /veh ID3 (11757404_x_at) / RFU PLEKHG5 (11737974_s_at) / Fold change /veh PLEKHG5 (11737974_s_at) / RFU LRRC4B (11730491_at) / Fold change /veh LRRC4B (11730491_at) / RFU GIMAP4 (11747438_a_at) / Fold change /veh GIMAP4 (11747438_a_at) / RFU KRT8 (11758183_x_at) / Fold change /veh KRT8 (11758183_x_at) / RFU CNN1 (11734310_a_at) / Fold change /veh CNN1 (11734310_a_at) / RFU VPS37D (11726825_at) / Fold change /veh VPS37D (11726825_at) / RFU C10orf10 (11716522_x_at) / Fold change /veh C10orf10 (11716522_x_at) / RFU KIR2DL2 /// KIR2DL4 /// KIR2DL5A /// KIR2DL5B /// KIR2DS1 /// KIR2DS2 /// KIR2DS3 /// KIR2DS4 /// KIR3DL3 /// KIR3DL3 /// KIR3DS1 (11738374_at) / Fold change /veh KIR2DL2 /// KIR2DL4 /// KIR2DL5A /// KIR2DL5B /// KIR2DS1 /// KIR2DS2 /// KIR2DS3 /// KIR2DS4 /// KIR3DL3 /// KIR3DL3 /// KIR3DS1 (11738374_at) / RFU C1QL1 (11718748_at) / Fold change /veh C1QL1 (11718748_at) / RFU TMPRSS4 (11747572_a_at) / Fold change /veh TMPRSS4 (11747572_a_at) / RFU HAMP (11756126_x_at) / Fold change /veh HAMP (11756126_x_at) / RFU RNFT2 (11725882_a_at) / Fold change /veh RNFT2 (11725882_a_at) / RFU NR4A2 (11747474_a_at) / Fold change /veh NR4A2 (11747474_a_at) / RFU ABCC12 (11746883_a_at) / Fold change /veh ABCC12 (11746883_a_at) / RFU TMEM136 (11760407_x_at) / Fold change /veh TMEM136 (11760407_x_at) / RFU CLDN22 /// WWC2 (11732394_at) / Fold change /veh CLDN22 /// WWC2 (11732394_at) / RFU HLA-DPB1 (11760878_x_at) / Fold change /veh HLA-DPB1 (11760878_x_at) / RFU SPINT1 (11716480_a_at) / Fold change /veh SPINT1 (11716480_a_at) / RFU GAP43 (11754022_s_at) / Fold change /veh GAP43 (11754022_s_at) / RFU A4GNT (11735810_at) / Fold change /veh A4GNT (11735810_at) / RFU PRB3 (11715151_x_at) / Fold change /veh PRB3 (11715151_x_at) / RFU TUBB4B (11761932_at) / Fold change /veh TUBB4B (11761932_at) / RFU CAPN14 (11732068_a_at) / Fold change /veh CAPN14 (11732068_a_at) / RFU TMCC2 (11721928_a_at) / Fold change /veh TMCC2 (11721928_a_at) / RFU IRGQ (11745062_a_at) / Fold change /veh IRGQ (11745062_a_at) / RFU FAM174B (11720279_a_at) / Fold change /veh FAM174B (11720279_a_at) / RFU TMPRSS4 (11748680_a_at) / Fold change /veh TMPRSS4 (11748680_a_at) / RFU FAM212B (11763350_a_at) / Fold change /veh FAM212B (11763350_a_at) / RFU PLEKHG5 (11743358_a_at) / Fold change /veh PLEKHG5 (11743358_a_at) / RFU ZSCAN30 (11745921_a_at) / Fold change /veh ZSCAN30 (11745921_a_at) / RFU CMKLR1 (11741424_a_at) / Fold change /veh CMKLR1 (11741424_a_at) / RFU LOC101060620 /// MAPK8IP1 (11723275_at) / Fold change /veh LOC101060620 /// MAPK8IP1 (11723275_at) / RFU SPTSSB (11747773_x_at) / Fold change /veh SPTSSB (11747773_x_at) / RFU PRSS12 (11739890_at) / Fold change /veh PRSS12 (11739890_at) / RFU BIN1 (11741810_x_at) / Fold change /veh BIN1 (11741810_x_at) / RFU WNT11 (11732464_a_at) / Fold change /veh WNT11 (11732464_a_at) / RFU C10orf10 (11716521_a_at) / Fold change /veh C10orf10 (11716521_a_at) / RFU C5orf56 (11738089_at) / Fold change /veh C5orf56 (11738089_at) / RFU CYB561 (11721691_x_at) / Fold change /veh CYB561 (11721691_x_at) / RFU ANKRD19P (11752326_a_at) / Fold change /veh ANKRD19P (11752326_a_at) / RFU OR2T12 /// OR2T33 /// OR2T8 (11738714_s_at) / Fold change /veh OR2T12 /// OR2T33 /// OR2T8 (11738714_s_at) / RFU VCAN (11748164_a_at) / Fold change /veh VCAN (11748164_a_at) / RFU JSRP1 (11732532_at) / Fold change /veh JSRP1 (11732532_at) / RFU KRTAP10-11 (11738290_x_at) / Fold change /veh KRTAP10-11 (11738290_x_at) / RFU MYO3A (11730013_a_at) / Fold change /veh MYO3A (11730013_a_at) / RFU EBF3 (11725865_a_at) / Fold change /veh EBF3 (11725865_a_at) / RFU CAMK2N1 (11719241_x_at) / Fold change /veh CAMK2N1 (11719241_x_at) / RFU C5orf56 (11738088_a_at) / Fold change /veh C5orf56 (11738088_a_at) / RFU OLFML3 (11715873_a_at) / Fold change /veh OLFML3 (11715873_a_at) / RFU LOC100653217 /// NTM (11731650_a_at) / Fold change /veh LOC100653217 /// NTM (11731650_a_at) / RFU MAPK11 (11762145_a_at) / Fold change /veh MAPK11 (11762145_a_at) / RFU FIZ1 (11724087_x_at) / Fold change /veh FIZ1 (11724087_x_at) / RFU OASL (11726364_x_at) / Fold change /veh OASL (11726364_x_at) / RFU SOX15 (11748057_x_at) / Fold change /veh SOX15 (11748057_x_at) / RFU CD79A (11719716_a_at) / Fold change /veh CD79A (11719716_a_at) / RFU HIST1H1D (11736915_at) / Fold change /veh HIST1H1D (11736915_at) / RFU CASKIN2 (11723855_a_at) / Fold change /veh CASKIN2 (11723855_a_at) / RFU LOC730098 (11760151_x_at) / Fold change /veh LOC730098 (11760151_x_at) / RFU OR4N2 (11742367_at) / Fold change /veh OR4N2 (11742367_at) / RFU PRRT2 (11749266_a_at) / Fold change /veh PRRT2 (11749266_a_at) / RFU SNX32 (11753110_a_at) / Fold change /veh SNX32 (11753110_a_at) / RFU CDHR5 (11726645_a_at) / Fold change /veh CDHR5 (11726645_a_at) / RFU RCAN1 (11760418_a_at) / Fold change /veh RCAN1 (11760418_a_at) / RFU FAM167A (11723789_a_at) / Fold change /veh FAM167A (11723789_a_at) / RFU FAM26E (11764081_at) / Fold change /veh FAM26E (11764081_at) / RFU ISYNA1 (11749810_s_at) / Fold change /veh ISYNA1 (11749810_s_at) / RFU ACY1 (11761880_at) / Fold change /veh ACY1 (11761880_at) / RFU 11764098_at / Fold change /veh 11764098_at / RFU SAMD14 (11745864_x_at) / Fold change /veh SAMD14 (11745864_x_at) / RFU NPB (11741838_a_at) / Fold change /veh NPB (11741838_a_at) / RFU TMPRSS6 (11731388_a_at) / Fold change /veh TMPRSS6 (11731388_a_at) / RFU KRTAP10-2 (11738614_at) / Fold change /veh KRTAP10-2 (11738614_at) / RFU ARHGAP8 /// PRR5-ARHGAP8 (11727945_x_at) / Fold change /veh ARHGAP8 /// PRR5-ARHGAP8 (11727945_x_at) / RFU KRTAP5-7 /// NADSYN1 (11734609_at) / Fold change /veh KRTAP5-7 /// NADSYN1 (11734609_at) / RFU RASL12 (11751679_a_at) / Fold change /veh RASL12 (11751679_a_at) / RFU CDKN2B (11736163_a_at) / Fold change /veh CDKN2B (11736163_a_at) / RFU PRF1 (11729649_at) / Fold change /veh PRF1 (11729649_at) / RFU, ZNF638 /// ZNF638-IT1 / Fold change vs veh, ZNF638 /// ZNF638-IT1 / RFU, PANK3 / Fold change vs veh, PANK3 / RFU, SH3YL1 / Fold change vs veh, SH3YL1 / RFU, ZEB2 / Fold change vs veh, ZEB2 / RFU, NRIP1 / Fold change vs veh, NRIP1 / RFU, PTTG1IP / Fold change vs veh, PTTG1IP / RFU, CAPN2 / Fold change vs veh, CAPN2 / RFU, MED14 / Fold change vs veh, MED14 / RFU, SNORA58 / Fold change vs veh, SNORA58 / RFU, C1orf63 / Fold change vs veh, C1orf63 / RFU, LRRFIP1 / Fold change vs veh, LRRFIP1 / RFU, NDUFAF7 / Fold change vs veh, NDUFAF7 / RFU, SLC12A2 / Fold change vs veh, SLC12A2 / RFU, IBTK / Fold change vs veh, IBTK / RFU, ESF1 / Fold change vs veh, ESF1 / Fold change vs veh, TMEM50B / RFU, TAOK1 / Fold change vs veh, TAOK1 / RFU, ACBD3 / Fold change vs veh, ACBD3 / RFU, TMA16 / Fold change vs veh, TMA16 / RFU, RWDD3 / Fold change vs veh, RWDD3 / RFU, BCAT1 / Fold change vs veh, BCAT1 / RFU, EDEM3 / Fold change vs veh, EDEM3 / RFU, TMEM33 / Fold change vs veh, TMEM33 / RFU, WDR75 / Fold change vs veh, WDR75 / RFU, AHCTF1 / Fold change vs veh, AHCTF1 / RFU, TFRC / Fold change vs veh, TFRC / RFU, ZDHHC17 / Fold change vs veh, ZDHHC17 / RFU, NOM1 / Fold change vs veh, NOM1 / RFU, ARL8B / Fold change vs veh, ARL8B / RFU, ZBTB11 / Fold change vs veh, ZBTB11 / RFU, TAMM41 / Fold change vs veh, TAMM41 / RFU, KIAA1704 /// LOC100996395 / Fold change vs veh, KIAA1704 /// LOC100996395 / RFU, ING1 / Fold change vs veh, ING1 / RFU, TRMT61B / Fold change vs veh, TRMT61B / RFU, FUBP3 / Fold change vs veh, FUBP3 / RFU, TP53 / Fold change vs veh, TP53 / RFU, TNKS2 / Fold change vs veh, TNKS2 / RFU, ZFP14 / Fold change vs veh, ZFP14 / RFU, ACTR2 / Fold change vs veh, ACTR2 / RFU, PPP3R1 / Fold change vs veh, PPP3R1 / RFU, PIK3R1 / Fold change vs veh, PIK3R1 / RFU, HNRNPA1 / Fold change vs veh, HNRNPA1 / RFU, RNF170 / Fold change vs veh, RNF170 / RFU, ZNF28 / Fold change vs veh, ZNF28 / RFU, RNGTT / Fold change vs veh, RNGTT / RFU, OGT / Fold change vs veh, OGT / RFU, BRD1 / Fold change vs veh, BRD1 / RFU, MARS / Fold change vs veh, MARS / RFU, ZNF655 / Fold change vs veh, ZNF655 / RFU, FAHD1 / Fold change vs veh, FAHD1 / RFU, BDP1 / Fold change vs veh, BDP1 / RFU, LRRCC1 / Fold change vs veh, LRRCC1 / RFU, ARID1A / Fold change vs veh, ARID1A / RFU, ZNF146 / Fold change vs veh, ZNF146 / RFU, ZNF330 / Fold change vs veh, ZNF330 / RFU, GPN3 / Fold change vs veh, GPN3 / RFU, C9orf123 / Fold change vs veh, C9orf123 / RFU, N4BP2L2 / Fold change vs veh, N4BP2L2 / RFU, ARFIP1 / Fold change vs veh, ARFIP1 / RFU, FAM179B / Fold change vs veh, FAM179B / RFU, BCL10 / Fold change vs veh, BCL10 / RFU, UHRF1BP1L / Fold change vs veh, UHRF1BP1L / RFU, BET1 / Fold change vs veh, BET1 / RFU, CNOT2 / Fold change vs veh, CNOT2 / RFU, ZNF268 / Fold change vs veh, ZNF268 / Fold change vs veh, ZNF507 / RFU, DGCR2 / Fold change vs veh, DGCR2 / RFU, WDSUB1 / Fold change vs veh, WDSUB1 / Fold change vs veh, HSP90B1 /// MIR3652 / RFU, ADSS / Fold change vs veh, ADSS / RFU, GK / Fold change vs veh, GK / RFU, ZNF148 / Fold change vs veh, ZNF148 / RFU, TAF9 / Fold change vs veh, TAF9 / RFU, SLC1A5 / Fold change vs veh, SLC1A5 / RFU, SLMO2 / Fold change vs veh, SLMO2 / RFU, ABCC4 / Fold change vs veh, ABCC4 / RFU, LOC101060439 /// RAP1B / Fold change vs veh, LOC101060439 /// RAP1B / RFU, RFX7 / Fold change vs veh, RFX7 / RFU, GTPBP10 / Fold change vs veh, GTPBP10 / RFU, CNEP1R1 / Fold change vs veh, CNEP1R1 / RFU, BIVM-ERCC5 /// ERCC5 / Fold change vs veh, BIVM-ERCC5 /// ERCC5 / RFU, ILF3 / Fold change vs veh, ILF3 / RFU 11762660_at / Fold change /veh 11762660_at / RFU VCAN (11757783_s_at) / Fold change /veh VCAN (11757783_s_at) / RFU DDX43 (11728927_at) / Fold change /veh DDX43 (11728927_at) / RFU KRT8 (11758188_x_at) / Fold change /veh KRT8 (11758188_x_at) / RFU NKD1 (11759106_at) / Fold change /veh NKD1 (11759106_at) / RFU SRD5A1 (11742802_a_at) / Fold change /veh SRD5A1 (11742802_a_at) / RFU TPSAB1 /// TPSB2 (11721975_s_at) / Fold change /veh TPSAB1 /// TPSB2 (11721975_s_at) / RFU GSTM3 (11746129_a_at) / Fold change /veh GSTM3 (11746129_a_at) / RFU IL23R (11737362_x_at) / Fold change /veh IL23R (11737362_x_at) / RFU TMEM51 (11727254_a_at) / Fold change /veh TMEM51 (11727254_a_at) / RFU PIWIL2 (11732686_x_at) / Fold change /veh PIWIL2 (11732686_x_at) / RFU ORM1 (11744905_x_at) / Fold change /veh ORM1 (11744905_x_at) / RFU CCDC152 (11743942_at) / Fold change /veh CCDC152 (11743942_at) / RFU ECM1 (11717891_a_at) / Fold change /veh ECM1 (11717891_a_at) / RFU IL23R (11748794_a_at) / Fold change /veh IL23R (11748794_a_at) / RFU TNFAIP8L3 (11732012_x_at) / Fold change /veh TNFAIP8L3 (11732012_x_at) / RFU MBOAT4 (11741988_at) / Fold change /veh MBOAT4 (11741988_at) / RFU 11764193_at / Fold change /veh 11764193_at / RFU TMEM53 (11763286_at) / Fold change /veh TMEM53 (11763286_at) / RFU MAGEB2 (11727129_at) / Fold change /veh MAGEB2 (11727129_at) / RFU TMEM200A (11744735_a_at) / Fold change /veh TMEM200A (11744735_a_at) / RFU CCDC152 (11751479_a_at) / Fold change /veh CCDC152 (11751479_a_at) / RFU FAM211A (11726209_a_at) / Fold change /veh FAM211A (11726209_a_at) / RFU RGS16 (11746705_a_at) / Fold change /veh RGS16 (11746705_a_at) / RFU VCAN (11755009_s_at) / Fold change /veh VCAN (11755009_s_at) / RFU RHOB (11743442_s_at) / Fold change /veh RHOB (11743442_s_at) / RFU RGS16 (11720943_a_at) / Fold change /veh RGS16 (11720943_a_at) / RFU RGS16 (11720944_at) / Fold change /veh RGS16 (11720944_at) / RFU, VPS4B / Fold change vs veh, VPS4B / RFU, CREB1 / Fold change vs veh, CREB1 / RFU, DNAJC13 / Fold change vs veh, DNAJC13 / RFU, GNAQ / Fold change vs veh, GNAQ / RFU, CDK5R1 / Fold change vs veh, CDK5R1 / RFU, ZRANB3 / Fold change vs veh, ZRANB3 / RFU, CUL4A / Fold change vs veh, CUL4A / RFU, CCNY / Fold change vs veh, CCNY / RFU, UFL1 / Fold change vs veh, UFL1 / RFU, COG3 / Fold change vs veh, COG3 / RFU, DIAPH2 / Fold change vs veh, DIAPH2 / RFU, SKA2 / Fold change vs veh, SKA2 / RFU, AFF3 / Fold change vs veh, AFF3 / RFU, LMF1 / Fold change vs veh, LMF1 / RFU, IPO11 / Fold change vs veh, IPO11 / RFU, DFFB / Fold change vs veh, DFFB / RFU, FOXP1 / Fold change vs veh, FOXP1 / RFU, CARD8 / Fold change vs veh, CARD8 / RFU, STRN3 / Fold change vs veh, STRN3 / RFU, ADK / Fold change vs veh, ADK / RFU, RASSF2 / Fold change vs veh, RASSF2 / RFU, WIPF1 / Fold change vs veh, WIPF1 / RFU, LARP1B / Fold change vs veh, LARP1B / RFU, RASA1 / Fold change vs veh, RASA1 / RFU, RB1 / Fold change vs veh, RB1 / RFU, PPFIA1 / Fold change vs veh, PPFIA1 / RFU, MAT2A / Fold change vs veh, MAT2A / RFU, CCT5 / Fold change vs veh, CCT5 / RFU, WDR92 / Fold change vs veh, WDR92 / RFU, CUX1 / Fold change vs veh, CUX1 / RFU, TTC7A / Fold change vs veh, TTC7A / RFU, TMEM135 / Fold change vs veh, TMEM135 / RFU, DEPTOR / Fold change vs veh, DEPTOR / RFU, CPM / Fold change vs veh, CPM / RFU, DNAJB6 / Fold change vs veh, DNAJB6 / RFU, CACNA2D3 / Fold change vs veh, CACNA2D3 / RFU, DTX4 / Fold change vs veh, DTX4 / RFU, TFCP2 / Fold change vs veh, TFCP2 / RFU, GMCL1 /// GMCL1P1 / Fold change vs veh, GMCL1 /// GMCL1P1 / RFU, AEBP2 / Fold change vs veh, AEBP2 / RFU, SNHG1 /// SNORD22 /// SNORD25 /// SNORD26 /// SNORD27 /// SNORD28 /// SNORD29 /// SNORD31 / Fold change vs veh, SNHG1 /// SNORD22 /// SNORD25 /// SNORD26 /// SNORD27 /// SNORD28 /// SNORD29 /// SNORD31 / Fold change (Aza/veh), C12orf56 (ProbeSet 11735607_a_at) / Fold change (ACY-1035/veh), C12orf56 (ProbeSet 11735607_a_at) / Fold change (Aza/veh), FGFR1OP (ProbeSet 11751329_s_at) / Fold change (ACY-1035/veh), FGFR1OP (ProbeSet 11751329_s_at) / Fold change (Aza/veh), VPS36 (ProbeSet 11739960_a_at) / Fold change (ACY-1035/veh), VPS36 (ProbeSet 11739960_a_at) / RFU SYPL1 (11715823_x_at) / Fold change /veh SYPL1 (11715823_x_at) / RFU IGFBP7 (11715501_s_at) / Fold change /veh IGFBP7 (11715501_s_at) / RFU REEP3 (11722064_at) / Fold change /veh REEP3 (11722064_at) / RFU IGLL1 (11728026_x_at) / Fold change /veh IGLL1 (11728026_x_at): dose or concentration left out as unconfirmed
Conditions: ProbeSet 11749551_a_at; LIST B

`Nc1ccc(-c2cccs2)cc1NC(=O)c1ccc2c(c1)cc(C1CC1)n2CCN1CCOCC1` [ACY-1035] was tested, and the “Fold change vs veh, RNGTT” value was 0.96.

From article PMC5218480 (PLoS ONE, 2017)
